# Assays:
# MBP-dC10α [1] = experiment: Time-dependent fluorescence increase for kinetic studies with MBP-dC10α; type: biochemical
# Procedure: 4. Time-Dependent Fluorescence Increase for Kinetic Studies.
# Protein labelling kinetics were studied by following the time-dependent fluorescence increase at 37° C. using a Synergy H4 Hybrid Multi-Mode Microplate Reader with excitation and emission monochromators set at a 9-nm bandpass. The reaction was prepared in 50 mM HEPES buffer (pH 7.4) with 5% DMSO. Solutions of MBP-dC10α were prepared in a 96-well plate and labelling reagent YC23, YC28 or YC29 in DMSO was added immediately before recording. The final concentrations of YC23, YC28, YC29 and of MBP-dC10α were all 25 μM in 50 mM HEPES buffer (pH 7.4) with 5% DMSO. Samples were excited at 495 nm (YC23), 540 nm (YC28) or 580 nm (YC29) and fluorescence intensity was followed at 525 nm (YC23), 590 nm (YC28) or 630 nm (YC29) as a function of time.
# MBP-dC10α [2] = experiment: Excitation and emission spectra of fluorogen-labelled MBP-dC10α; type: physicochemical; conditions: 25 μM MBP-dC10α labelled with one equivalent of fluorogen
# Procedure: (§1) Emission spectra and fluorescence intensity measurements were recorded at 37° C. with a Synergy H4 Hybrid Multi-Mode Microplate Reader with excitation and emission monochromators set at 9 nm bandpass. Concentrations of 2.5, 5, 12.5, 20, and 25 μM of MBP-dC10α were reacted with 25 μM YC23. The mixture of 25 μM solution of YC23 and 2.5, 5, 12.5 20, or 25 μM MBP-dC10α in 50 mM HEPES buffer (pH 7.4) with 5% DMSO was incubated at 37° C. in the dark for overnight after which the fluorescence emission spectrum was recorded (λex=480 nm). The emission spectra of YC23 in the same solution without MBP-dC10α were also recorded. The ratio of fluorescence intensity at maximum emission gave the fluorescence enhancement ratio. Selectivity tests were done with same protocol but with different concentrations of thiols. The mixture of 25 μM solution of YC28 or YC29 and 25 μM MBP-dC10α in 50 mM HEPES buffer (pH 7.4) with 5% DMSO was incubated at 37° C. in the dark for overnight after which the fluorescence emission spectrum was recorded. The emission spectra of YC28 or YC29 in the same solution without MBP-dC10α were also recorded. The ratio of fluorescence intensity at maximum emission gave the fluorescence enhancement ratio. λex for YC28 is 540 nm and λex for YC29 is 580 nm. Excitation and emission spectra were obtained for 25 μM of MBP-dC10α labelled with one equivalent of YC23 (FIG. 10), YC28 (FIG. 11a) or YC29 (FIG. 11b).
# [3] = system: histone-H2B-dC10α in HEK293T cells; experiment: Cellular labelling with confocal fluorescence microscopy; type: cell-based, Human; conditions: for fluorescence in cells transfected with histone-H2B-dC10α / fluorescence in negative-control cells (pcDNA / mock DNA): HEK293T, 10 μM fluorogen; for fluorescence in cells transfected with histone-H2B-dC10α: 30 min (YC23) or 45 min (YC29); for fluorescence in negative-control cells (pcDNA / mock DNA): same conditions
# Procedure: HEK 293T cells were plated into 60-mm dishes and grown in MEM supplemented with 10% FBS, 100 units/mL of penicillin and 100 μg/mL of streptomycin for 16 h before transfection. Cells were transiently transfected with histone H2B-dC10α or pcDNA3.1 (mock) using lipofectamine 2000 following the manufacturer's instructions. […] Cells were observed and imaged on a Nikon confocal microscope with a 25× objective. Images were taken and analyzed with NIS-Elements software.
# HEK293T cells = experiment: MTT assay cytotoxicity; type: cell-based, Human; conditions: up to 100 μM, 20 hours
# Procedure: 3-(4,5-Dimethylthiazol-2-yl)-2,5-diphenyl tetrazolium bromide (MTT) is a yellow tetrazolium salt and can be reduced to formazan crystals, which are insoluble in aqueous solutions, by active mitochondria in living cells. The resulting intracellular purple formazan can be dissolved in Triton X100, and therefore quantified by measuring absorption of the solution.
# Cells were seeded in a 96-well plate and incubated with 100 μL of culture medium with different amounts of the fluorogen YCx for 20 h. No fluorogen was added to the positive control and no cells were plated in the negative control. Portions of 25 μL of MTT solution (5 mg in 1 mL of Hanks' balanced salt solution) were added to the wells and the cells were further incubated at 37° C. for 4 h. Solubilization solutions (100 μL) were then added and incubated in 96-well plates at room temperature in the dark overnight. The absorption of each well was measured using a plate reader at a wavelength of 570 nm with 690 nm as a reference. Cell viability was calculated according to the following equation: Cell viability=(Awith fluorogen−Anegative control)/(Apositive control−Anegative control)×100%
# [4] = Selectivity over other thiols, overnight incubation; type: biochemical; conditions: 25 μM YC23 overnight; 250 μM Cys and Hcy, 1 mM GSH vs 25 μM MBP-dC10α
# Procedure: The selectivity of fluorogen YC23 was tested by incubating it overnight in the presence of MBP-dC10α or other intracellular thiols.
# as §1, with “Excitation and emission spectra were obtained for 25 μM of MBP-dC10α labelled with one equivalent of YC23 (FIG. 10), YC28 (FIG. 11a) or YC29 (FIG. 11b).” left out
# MBP-dC10α [5] = experiment: Labelling of MBP-dC10α, purified and in bacterial lysate, analysed by SDS-PAGE after heat denaturation; type: biochemical, Escherichia coli
# Procedure: 10% SDS-PAGE gels developed by (A) fluorescence (λex=491 nm, λem=508 nm) and (B) Coomassie staining are shown. Lane 1: molecular weight markers. Lanes 2-3: Purified MBP-[…]α, concentrated to 50 μM and (lane 3) labelled with 50 μM YC23, prior to 10-fold dilution and loading. Lanes 4-6: Soluble lysate of bacteria expressing MBP-[…]α, treated with 10, 50, or 100 μM YC23 respectively and 0.5 mM TCEP overnight, prior to loading. The thiol addition reaction of a maleimide group typically results in the formation of robust covalent bonds, which should be stable under conditions in which the labelled protein may itself undergo denaturation. To test this hypothesis, we expressed MBP-[…]α in Escherichia coli and used YC23 to label the test protein in bacterial lysate as well as the purified test protein. These samples were then heated to 95° C. for 15 min, prior to analysis by SDS-PAGE. […] Furthermore, as shown in lanes 4-6, as little as 10 μM of YC23 was sufficient to label the test protein, in the complex biological mixture of cell lysate.
# MBP-dC10α [6] = experiment: Fluorescence enhancement of fluorogen after labelling of test protein MBP-dC10α; type: biochemical; conditions: for fluorescence enhancement after reaction with MBP-dC10α: 25 μM fluorogen + 25 μM MBP-dC10α, overnight at 37° C., ratio of intensity at emission maximum; for background (latent) fluorescence of the unreacted fluorogen: 25 μM fluorogen without MBP-dC10α, 50 mM HEPES pH 7.4, 5% DMSO
# Procedure: 3. Determination of Fluorescence Properties of Fluorogens, Fluorescence Changes after Labelling of Target Protein, Selectivity Over Other Thiols, and Fluorescence Enhancement Ratios.
# as §1
# [7] = Time-dependent fluorescence increase with excess glutathione; type: biochemical
emission maximum of labelled MBP-dC10α (MBP-dC10α [2]),excitation maximum of labelled MBP-dC10α (MBP-dC10α [2]),stability and selectivity of the fluorogen ([7]; in presence of GSH vs MBP-dC10α),SMILES,"time required to approach maximum fluorescence (MBP-dC10α [1]; 25 μM fluorogen + 25 μM MBP-dC10α, 37° C.)","fluorescence increase after 15 min (MBP-dC10α [1]; 25 μM fluorogen + 25 μM MBP-dC10α, 37° C., 15 min)",fluorescence in cells transfected with histone-H2B-dC10α [3],fluorescence in negative-control cells (pcDNA / mock DNA) [3],effect on cell viability (HEK293T cells),fluorescence after incubation with other thiols relative to MBP-dC10α [4],"fluorescence of labelled purified test protein under denaturing conditions (MBP-dC10α [5]; 95° C. for 15 min, then SDS-PAGE)","concentration sufficient to label the test protein in cell lysate (MBP-dC10α [5]; soluble bacterial lysate, 0.5 mM TCEP, overnight)","dependence of fluorescence increase on MBP-dC10α concentration (MBP-dC10α [6]; 25 μM YC23, 2.5-25 μM MBP-dC10α)",fluorescence enhancement after reaction with MBP-dC10α (MBP-dC10α [6]),background (latent) fluorescence of the unreacted fluorogen (MBP-dC10α [6]),kinetic selectivity for MBP-dC10α relative to GSH ([7]; 25 μM MBP vs 5 mM GSH),"reaction with MBP-dC10α test protein (time-dependent fluorescence) (MBP-dC10α [1]; 25 μM fluorogen, 25 μM MBP-dC10α)","localisation of fluorescence in transfected cells ([3]; HEK293T expressing histone H2B-dC10α, 10 μM, 45 min)",reaction with GSH (time-dependent fluorescence) ([7]; 5 mM GSH)
525 nm,510 nm,–,"COC1=CC(=O)N(c2ccc(C3=C4C(C)=CC(C)=[N+]4[B-](F)(F)n4c(C)cc(C)c43)c(N3C(=O)C=C(OC)C3=O)c2)C1=O [YC23, 10-(2,4-Bis(3-methoxy-2,5-dioxo-2,5-dihydro-1H-pyrrol-1-yl)phenyl)-5,5-difluoro-1,3,7,9-tetramethyl-5H-dipyrrolo[1,2-c:2′,1′-f][1,3,2]diazaborinin-4-ium-5-uide]",more than 4 hours,10 fold,strongly green fluorescent,negligible fluorescence,negligible effect on cell viability,< 10%,maintained its fluorescence,≤ 10 µM,concentration-dependent,ca. 800 fold,negligible background fluorescence,–,–,–,–
592 nm,–,–,"COC(=O)CSC1=[N+]2C(=C(c3ccccc3)c3ccc(Nc4cc(N5C(=O)C=C(OC)C5=O)cc(N5C(=O)C=C(OC)C5=O)c4)n3[B-]2(F)F)C=C1 [YC28, 7-((3,5-bis(3-methoxy-2,5-dioxo-2,5-dihydro-1H-pyrrol-1-yl)phenyl)amino)-5,5-difluoro-3-((2-methoxy-2-oxoethyl)thio)-10-phenyl-5H-dipyrrolo[1,2-c:2′,1′-f][1,3,2]diazaborinin-4-ium-5-uide]",–,–,–,–,–,–,–,–,–,579 fold,effectively quenched,acceptable but not excellent,–,–,–
630 nm,–,excellent stability and selectivity,"COC1=CC(=O)N(c2cc(Nc3ccc4n3[B-](F)(F)[N+]3=C(N(C)c5ccccc5)C=CC3=C4c3ccccc3)cc(N3C(=O)C=C(OC)C3=O)c2)C1=O [YC29, 7-((3,5-bis(3-methoxy-2,5-dioxo-2,5-dihydro-1H-pyrrol-1-yl)phenyl)amino)-5,5-difluoro-3-(methyl(phenyl)amino)-10-phenyl-5H-dipyrrolo[1,2-c:2′,1′-f][1,3,2]diazaborinin-4-ium-5-uide]",–,–,Intense red fluorescence,no red fluorescence was detected,–,–,–,–,–,308 fold,efficiently quenched,–,reacted readily,localized in the nucleus,did not show any detectable reaction

# From US9958452B2, “Highly fluorogenic protein labelling agents” (UNIVERSITY OF OTTAWA, priority 2015, dated 2018)
